# Experimental data as given in ChEMBL document CHEMBL4346687, “Design, synthesis and biological evaluation of novel uracil derivatives bearing 1, 2, 3-triazole moiety as thymidylate synthase (TS) inhibitors and as potential antitumor drugs” (Eur J Med Chem, 2019).
# Tested on: not listed separately
# Assay: Cytotoxicity against human HPAEpic cells assessed as reduction in cell viability after 24 hrs by MTT assay
# Type: cell-based
# Conditions: 24 h
row,Structure (SMILES),CC50
1,O=c1[nH]cc(S(=O)(=O)Nc2cccc(-c3cn(-c4ccccc4F)nn3)c2)c(=O)[nH]1,Non-Toxic
2,O=c1[nH]cc(S(=O)(=O)Nc2ccccc2-c2cn(-c3ccc(F)cc3)nn2)c(=O)[nH]1,Non-Toxic
3,O=c1[nH]cc(S(=O)(=O)Nc2cccc(-c3cn(-c4ccc(F)cc4)nn3)c2)c(=O)[nH]1,Non-Toxic
4,O=c1[nH]cc(S(=O)(=O)Nc2cccc(-c3cn(-c4cccc(F)c4)nn3)c2)c(=O)[nH]1,Non-Toxic
5,Cc1ccccc1-n1cc(-c2ccc(NS(=O)(=O)c3c[nH]c(=O)[nH]c3=O)cc2)nn1,Non-Toxic
6,O=c1[nH]cc(S(=O)(=O)Nc2ccc(-c3cn(-c4ccccc4)nn3)cc2)c(=O)[nH]1,Non-Toxic
7,O=c1[nH]cc(S(=O)(=O)Nc2ccc(-c3cn(-c4cccc(F)c4)nn3)cc2)c(=O)[nH]1,Non-Toxic

# Tested on: not listed separately
# Assay: Cytotoxicity against human IOSE-80 cells assessed as reduction in cell viability after 24 hrs by MTT assay
# Type: cell-based
# Conditions: 24 h
row,Structure (SMILES),CC50
1,O=c1[nH]cc(S(=O)(=O)Nc2cccc(-c3cn(-c4ccccc4F)nn3)c2)c(=O)[nH]1,Non-Toxic
2,O=c1[nH]cc(S(=O)(=O)Nc2ccccc2-c2cn(-c3ccc(F)cc3)nn2)c(=O)[nH]1,Non-Toxic
3,O=c1[nH]cc(S(=O)(=O)Nc2cccc(-c3cn(-c4ccc(F)cc4)nn3)c2)c(=O)[nH]1,Non-Toxic
4,O=c1[nH]cc(S(=O)(=O)Nc2cccc(-c3cn(-c4cccc(F)c4)nn3)c2)c(=O)[nH]1,Non-Toxic
5,Cc1ccccc1-n1cc(-c2ccc(NS(=O)(=O)c3c[nH]c(=O)[nH]c3=O)cc2)nn1,Non-Toxic
6,O=c1[nH]cc(S(=O)(=O)Nc2ccc(-c3cn(-c4ccccc4)nn3)cc2)c(=O)[nH]1,Non-Toxic
7,O=c1[nH]cc(S(=O)(=O)Nc2ccc(-c3cn(-c4cccc(F)c4)nn3)cc2)c(=O)[nH]1,Non-Toxic

# Tested on: GES1
# Assay: Cytotoxicity against human GES-1 cells assessed as reduction in cell viability after 24 hrs by MTT assay
# Type: cell-based
# Conditions: ges1, 24 h
row,Structure (SMILES),CC50
1,O=c1[nH]cc(S(=O)(=O)Nc2cccc(-c3cn(-c4ccccc4F)nn3)c2)c(=O)[nH]1,Non-Toxic
2,O=c1[nH]cc(S(=O)(=O)Nc2ccccc2-c2cn(-c3ccc(F)cc3)nn2)c(=O)[nH]1,Non-Toxic
3,O=c1[nH]cc(S(=O)(=O)Nc2cccc(-c3cn(-c4ccc(F)cc4)nn3)c2)c(=O)[nH]1,Non-Toxic
4,O=c1[nH]cc(S(=O)(=O)Nc2cccc(-c3cn(-c4cccc(F)c4)nn3)c2)c(=O)[nH]1,Non-Toxic
5,Cc1ccccc1-n1cc(-c2ccc(NS(=O)(=O)c3c[nH]c(=O)[nH]c3=O)cc2)nn1,Non-Toxic
6,O=c1[nH]cc(S(=O)(=O)Nc2ccc(-c3cn(-c4ccccc4)nn3)cc2)c(=O)[nH]1,Non-Toxic
7,O=c1[nH]cc(S(=O)(=O)Nc2ccc(-c3cn(-c4cccc(F)c4)nn3)cc2)c(=O)[nH]1,Non-Toxic

# Tested on: L02
# Assay: Cytotoxicity against human L02 cells assessed as reduction in cell viability after 24 hrs by MTT assay
# Type: cell-based
# Conditions: l02, 24 h
row,Structure (SMILES),CC50
1,O=c1[nH]cc(S(=O)(=O)Nc2cccc(-c3cn(-c4ccccc4F)nn3)c2)c(=O)[nH]1,Non-Toxic
2,O=c1[nH]cc(S(=O)(=O)Nc2ccccc2-c2cn(-c3ccc(F)cc3)nn2)c(=O)[nH]1,Non-Toxic
3,O=c1[nH]cc(S(=O)(=O)Nc2cccc(-c3cn(-c4ccc(F)cc4)nn3)c2)c(=O)[nH]1,Non-Toxic
4,O=c1[nH]cc(S(=O)(=O)Nc2cccc(-c3cn(-c4cccc(F)c4)nn3)c2)c(=O)[nH]1,Non-Toxic
5,Cc1ccccc1-n1cc(-c2ccc(NS(=O)(=O)c3c[nH]c(=O)[nH]c3=O)cc2)nn1,Non-Toxic
6,O=c1[nH]cc(S(=O)(=O)Nc2ccc(-c3cn(-c4ccccc4)nn3)cc2)c(=O)[nH]1,Non-Toxic
7,O=c1[nH]cc(S(=O)(=O)Nc2ccc(-c3cn(-c4cccc(F)c4)nn3)cc2)c(=O)[nH]1,Non-Toxic

# Tested on: A549
# Assay: cells
# Conditions: Homo sapiens, A549, 24 h
# Description: Antiproliferative activity against human A549 cells assessed as reduction in cell viability after 24 hrs by MTT assay
row,IC50,Structure (SMILES)
1,> 20 µM,O=c1[nH]cc(S(=O)(=O)Nc2cccc(-c3cn(-c4ccccc4F)nn3)c2)c(=O)[nH]1
2,6.39 µM,O=c1[nH]cc(S(=O)(=O)Nc2ccccc2-c2cn(-c3ccc(F)cc3)nn2)c(=O)[nH]1
3,> 20 µM,O=c1[nH]cc(S(=O)(=O)Nc2cccc(-c3cn(-c4ccc(F)cc4)nn3)c2)c(=O)[nH]1
4,7.2 µM,O=c1[nH]cc(S(=O)(=O)Nc2cccc(-c3cn(-c4cccc(F)c4)nn3)c2)c(=O)[nH]1
5,3.13 µM,Cc1ccccc1-n1cc(-c2ccc(NS(=O)(=O)c3c[nH]c(=O)[nH]c3=O)cc2)nn1
6,7.17 µM,O=c1[nH]cc(S(=O)(=O)Nc2ccc(-c3cn(-c4ccccc4)nn3)cc2)c(=O)[nH]1
7,9.98 µM,O=c1[nH]cc(S(=O)(=O)Nc2ccc(-c3cn(-c4cccc(F)c4)nn3)cc2)c(=O)[nH]1

# Tested on: OVCAR-3
# Assay: cells
# Conditions: Homo sapiens, OVCAR-3, 24 h
# Description: Antiproliferative activity against human OVCAR3 cells assessed as reduction in cell viability after 24 hrs by MTT assay
row,IC50,Structure (SMILES)
1,12.5 µM,O=c1[nH]cc(S(=O)(=O)Nc2cccc(-c3cn(-c4ccccc4F)nn3)c2)c(=O)[nH]1
2,> 20 µM,O=c1[nH]cc(S(=O)(=O)Nc2ccccc2-c2cn(-c3ccc(F)cc3)nn2)c(=O)[nH]1
3,> 20 µM,O=c1[nH]cc(S(=O)(=O)Nc2cccc(-c3cn(-c4ccc(F)cc4)nn3)c2)c(=O)[nH]1
4,> 20 µM,O=c1[nH]cc(S(=O)(=O)Nc2cccc(-c3cn(-c4cccc(F)c4)nn3)c2)c(=O)[nH]1
5,7.31 µM,Cc1ccccc1-n1cc(-c2ccc(NS(=O)(=O)c3c[nH]c(=O)[nH]c3=O)cc2)nn1
6,18 µM,O=c1[nH]cc(S(=O)(=O)Nc2ccc(-c3cn(-c4ccccc4)nn3)cc2)c(=O)[nH]1
7,> 20 µM,O=c1[nH]cc(S(=O)(=O)Nc2ccc(-c3cn(-c4cccc(F)c4)nn3)cc2)c(=O)[nH]1

# Tested on: SGC-7901
# Assay: cells
# Conditions: Homo sapiens, SGC-7901, 24 h
# Description: Antiproliferative activity against human SGC7901 cells assessed as reduction in cell viability after 24 hrs by MTT assay
row,IC50,Structure (SMILES)
1,16 µM,O=c1[nH]cc(S(=O)(=O)Nc2cccc(-c3cn(-c4ccccc4F)nn3)c2)c(=O)[nH]1
2,> 20 µM,O=c1[nH]cc(S(=O)(=O)Nc2ccccc2-c2cn(-c3ccc(F)cc3)nn2)c(=O)[nH]1
3,> 20 µM,O=c1[nH]cc(S(=O)(=O)Nc2cccc(-c3cn(-c4ccc(F)cc4)nn3)c2)c(=O)[nH]1
4,> 20 µM,O=c1[nH]cc(S(=O)(=O)Nc2cccc(-c3cn(-c4cccc(F)c4)nn3)c2)c(=O)[nH]1
5,13.6 µM,Cc1ccccc1-n1cc(-c2ccc(NS(=O)(=O)c3c[nH]c(=O)[nH]c3=O)cc2)nn1
6,18.8 µM,O=c1[nH]cc(S(=O)(=O)Nc2ccc(-c3cn(-c4ccccc4)nn3)cc2)c(=O)[nH]1
7,> 20 µM,O=c1[nH]cc(S(=O)(=O)Nc2ccc(-c3cn(-c4cccc(F)c4)nn3)cc2)c(=O)[nH]1

# Tested on: HepG2
# Assay: cells
# Conditions: Homo sapiens, HepG2, 24 h
# Description: Antiproliferative activity against human HepG2 cells assessed as reduction in cell viability after 24 hrs by MTT assay
row,IC50,Structure (SMILES)
1,13.9 µM,O=c1[nH]cc(S(=O)(=O)Nc2cccc(-c3cn(-c4ccccc4F)nn3)c2)c(=O)[nH]1
2,> 20 µM,O=c1[nH]cc(S(=O)(=O)Nc2ccccc2-c2cn(-c3ccc(F)cc3)nn2)c(=O)[nH]1
3,> 20 µM,O=c1[nH]cc(S(=O)(=O)Nc2cccc(-c3cn(-c4ccc(F)cc4)nn3)c2)c(=O)[nH]1
4,> 20 µM,O=c1[nH]cc(S(=O)(=O)Nc2cccc(-c3cn(-c4cccc(F)c4)nn3)c2)c(=O)[nH]1
5,14.5 µM,Cc1ccccc1-n1cc(-c2ccc(NS(=O)(=O)c3c[nH]c(=O)[nH]c3=O)cc2)nn1
6,18 µM,O=c1[nH]cc(S(=O)(=O)Nc2ccc(-c3cn(-c4ccccc4)nn3)cc2)c(=O)[nH]1
7,> 20 µM,O=c1[nH]cc(S(=O)(=O)Nc2ccc(-c3cn(-c4cccc(F)c4)nn3)cc2)c(=O)[nH]1
